From patent US8946203B2, “Benzodioxane inhibitors of leukotriene production” (Boehringer Ingelheim International GmbH, priority 2012, dated 2015)
Where two headings read alike, the source gives them in different places.

How the values were obtained:
[1] = biological target: T1, human LTA4 hydrolase (Homo sapiens, UniProt P09960); assay: LTA4H Enzyme assay (cleavage of Arg-AMC, fluorescence); type: biochemical
T1 sequence (P09960 1-611): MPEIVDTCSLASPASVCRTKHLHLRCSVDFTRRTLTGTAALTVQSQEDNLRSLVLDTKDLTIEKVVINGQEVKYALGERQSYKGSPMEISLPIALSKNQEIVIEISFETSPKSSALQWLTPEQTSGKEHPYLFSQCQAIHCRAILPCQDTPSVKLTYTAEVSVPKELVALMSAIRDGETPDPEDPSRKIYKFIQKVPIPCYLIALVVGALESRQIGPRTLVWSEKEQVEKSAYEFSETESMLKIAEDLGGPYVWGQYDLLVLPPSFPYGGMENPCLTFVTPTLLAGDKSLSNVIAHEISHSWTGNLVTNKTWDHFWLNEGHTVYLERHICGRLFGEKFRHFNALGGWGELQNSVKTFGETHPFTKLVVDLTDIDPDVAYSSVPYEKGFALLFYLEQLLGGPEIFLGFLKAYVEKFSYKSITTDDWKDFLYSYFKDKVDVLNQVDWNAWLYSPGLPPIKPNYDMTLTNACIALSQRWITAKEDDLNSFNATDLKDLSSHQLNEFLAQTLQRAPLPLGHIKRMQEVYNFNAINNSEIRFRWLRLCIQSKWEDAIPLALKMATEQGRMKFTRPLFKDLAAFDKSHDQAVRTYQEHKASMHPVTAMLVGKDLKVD
Method in brief: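 Peptidase activity of human LTA4H (1 nM final) on Arg-AMC (50 μM final), with compound, 1 h at room temperature. Buffer: 50 mM Tris-HCl pH 7.5, 100 mM KCl, 0.5% BSA.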

[2] = tested on: synthesis of LTB4 in human whole blood; assay: human whole blood (HWB) assay, LTB4 production inhibition after calcimycin stimulation; type: cell-based; conditions: heparinized human whole blood, calcimycin 20 μM, plasma LTB4 by HTRF
Method in brief: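 Heparinized human whole blood preincubated with compound 15 min at 37 °C, then stimulated with 20 μM (final) calcimycin for 30 min at 37 °C. Plasma LTB4 measured by antibody-based HTRF; IC50 reported.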

[3] = LTA4H Enzyme 1 nM, Arg-AMC substrate 50 μM, room temperature 1 h, fluorescence, read-out: IC50 values of LTA4H Enzyme assay

Compound | IC50 [1, 3] [nM] | IC50 [2] [nM] | IC50 [1] [nM]
N#Cc1cnc2n1CCN(Cc1ccc([C@H]3COc4cccnc4O3)cc1)C2 [Example 249, 7-[(S)-4-(2,3-Dihydro-[1,4]dioxino[2,3-b]pyridin-3-yl)-benzyl]-5,6,7,8-tetrahydro-imidazo[1,2-a]pyrazine-3-carbonitrile] | 0.25 | 58 | –
CC1CCN(Cc2ccc([C@H]3COc4cccnc4O3)cc2)CC1 [Example 137, (3S)-3-{4-[(4-methylpiperidin-1-yl)methyl]phenyl}-2,3-dihydro[1,4]dioxino[2,3-b]pyridine] | 0.26 | 28 | –
[O-][S+]1CCN(Cc2ccc([C@H]3COc4cccnc4O3)cc2)CC1 [Example 295, (S)-3-[4-(1-Oxo-1lambda4-thiomorpholin-4-ylmethyl)-phenyl]-2,3-dihydro-[1,4]dioxino[2,3-b]pyridine] | 0.79 | 120 | –
OC1(c2ccccc2)CCN(Cc2ccc([C@H]3COc4cccnc4O3)cc2)CC1 [Example 269, 1-[(S)-4-(2,3-Dihydro-[1,4]dioxino[2,3-b]pyridin-3-yl)-benzyl]-4-phenyl-piperidin-4-ol] | 0.2 | 36 | –
CC(=O)N(C)C1CCN(Cc2ccc([C@H]3COc4ccccc4O3)cc2)C1 (stereo partly drawn) [Example 83, N-(1-{4-[(2S)-2,3-dihydro-1,4-benzodioxin-2-yl]benzyl}pyrrolidin-3-yl)-N-methylacetamide] | 0.13 | 33 | –
O=C1CCCN1CC1CCCN(Cc2ccc(C3COc4ccccc4O3)cc2)C1 (racemic) [Example 10, 1-({1-[4-(2,3-dihydro-1,4-benzodioxin-2-yl)benzyl]piperidin-3-yl}methyl)pyrrolidin-2-one] | 0.75 | 352 | –
CONC(=O)CC1CCN(Cc2ccc([C@H]3COc4cccnc4O3)cc2)CC1 [Example 260, 2-{1-[(S)-4-(2,3-Dihydro-[1,4]dioxino[2,3-b]pyridin-3-yl)-benzyl]-piperidin-4-yl}-N-methoxy-acetamide] | 0.57 | 100 | –
O=C(CO)N1C[C@@H]2C[C@H]1CN2Cc1ccc([C@H]2COc3cccnc3O2)cc1 [Example 277, 1-{(1S,4S)-5-[(S)-4-(2,3-Dihydro-[1,4]dioxino[2,3-b]pyridin-3-yl)-benzyl]-2,5-diaza-bicyclo[2.2.1]hept-2-yl}-2-hydroxy-ethanone] | 0.3 | 65 | –
CC(=O)N1CC2CCC(C1)N2Cc1ccc([C@H]2COc3cccnc3O2)cc1 [Example 271, 1-{8-[(S)-4-(2,3-Dihydro-[1,4]dioxino[2,3-b]pyridin-3-yl)-benzyl]-3,8-diaza-bicyclo[3.2.1]oct-3-yl}-ethanone] | 0.65 | 110 | –
CCOC(=O)c1nnc2n1CCN(Cc1ccc([C@H]3COc4cccnc4O3)cc1)C2 [Example 240, 7-[(S)-4-(2,3-dihydro-[1,4]dioxino[2,3-b]pyridin-3-yl)-benzyl]-5,6,7,8-tetrahydro-[1,2,4]triazolo[4,3-a]pyrazine-3-carboxylic acid ethyl ester] | 0.56 | 140 | –
NC(=O)N[C@H]1C[C@H]2CC[C@@H](C1)N2Cc1ccc([C@H]2COc3cccnc3O2)cc1 [Example 259, {(endo)-8-[(S)-4-(2,3-Dihydro-[1,4]dioxino[2,3-b]pyridin-3-yl)-benzyl]-8-aza-bicyclo[3.2.1]oct-3-yl}-urea] | – | 790 | 0.3
O=C(C1CCN(Cc2ccc([C@H]3COc4cccnc4O3)cc2)CC1)N1CC(O)C1 [Example 286, {1-[(S)-4-(2,3-Dihydro-[1,4]dioxino[2,3-b]pyridin-3-yl)-benzyl]-piperidin-4-yl}-(3-hydroxy-azetidin-1-yl)-methanone] | 0.35 | 190 | –
COCC(=O)N1CCCN(Cc2ccc([C@H]3COc4cccnc4O3)cc2)CC1 [Example 257, 1-{4-[(S)-4-(2,3-Dihydro-[1,4]dioxino[2,3-b]pyridin-3-yl)-benzyl]-[1,4]diazepan-1-yl}-2-methoxy-ethanone] | 0.48 | 270 | –
CN1CCC2(CCN(Cc3ccc([C@H]4COc5ccccc5O4)cc3)CC2)C1=O [Example 121, 8-{4-[(2S)-2,3-dihydro-1,4-benzodioxin-2-yl]benzyl}-2-methyl-2,8-diazaspiro[4.5]decan-1-one] | 0.37 | 159 | –
CC(=O)NCC1CCN(Cc2ccc([C@H]3COc4cccnc4O3)cc2)CC1 [Example 279, N-{1-[(S)-4-(2,3-Dihydro-[1,4]dioxino[2,3-b]pyridin-3-yl)-benzyl]-piperidin-4-ylmethyl}-acetamide] | 0.34 | 93 | –
c1cnc2c(c1)OC[C@H](c1ccc(CN3[C@H]4CC[C@@H]3CC4)cc1)O2 [Example 145, (3S)-3-{4-[(1s,4s)-7-azabicyclo[2.2.1]hept-7-ylmethyl]phenyl}-2,3-dihydro[1,4]dioxino[2,3-b]pyridine] | – | 28 | 0.09
CC(=O)NC1CCN(Cc2ccc([C@H]3COc4cccnc4O3)cc2)CC1 [Example 160, N-(1-{4-[(3S)-2,3-dihydro[1,4]dioxino[2,3-b]pyridin-3-yl]benzyl}piperidin-4-yl)acetamide] | 0.18 | 28 | –
c1cnc2c(c1)OC[C@H](c1ccc(CN3CCCC3)cc1)O2 [Example 126, (3S)-3-[4-(pyrrolidin-1-ylmethyl)phenyl]-2,3-dihydro[1,4]dioxino[2,3-b]pyridine] | 0.18 | 32 | –
OC1CCN(Cc2ccc([C@H]3COc4cccnc4O3)cc2)CC1 [Example 186, 1-{4-[(3S)-2,3-dihydro[1,4]dioxino[2,3-b]pyridin-3-yl]benzyl}piperidin-4-ol] | 0.24 | 36 | –
CC1CCCCN1Cc1ccc([C@H]2COc3ccccc3O2)cc1 (stereo partly drawn) [Example 68, 1-{4-[(2S)-2,3-dihydro-1,4-benzodioxin-2-yl]benzyl}-2-methylpiperidine] | 0.1 | 81 | –
O[C@H]1CCN(Cc2ccc(C3COc4ccccc4O3)cc2)C1 (mixture of isomers) [Example 9, (3S)-1-[4-(2,3-dihydro-1,4-benzodioxin-2-yl)benzyl]pyrrolidin-3-ol] | 1.49 | 285 | –
CC(=O)N1CCC(N(C)Cc2ccc([C@H]3COc4ccccc4O3)cc2)CC1 [Example 14, 1-{4-[{4-[(2S)-2,3-dihydro-1,4-benzodioxin-2-yl]benzyl}(methyl)amino]piperidin-1-yl}ethanone] | 0.27 | 155 | –
NC(=O)c1nnc2n1CCN(Cc1ccc([C@H]3COc4cccnc4O3)cc1)C2 [Example 241, 7-[(S)-4-(2,3-Dihydro-[1,4]dioxino[2,3-b]pyridin-3-yl)-benzyl]-5,6,7,8-tetrahydro-[1,2,4]triazolo[4,3-a]pyrazine-3-carboxylic acid amide] | 0.5 | 110 | –
COCC(=O)NC1CCN(Cc2ccc([C@H]3COc4cccnc4O3)cc2)CC1 [Example 252, N-{1-[(S)-4-(2,3-Dihydro-[1,4]dioxino[2,3-b]pyridin-3-yl)-benzyl]-piperidin-4-yl}-2-methoxy-acetamide] | 0.15 | 42 | –
CC(=O)N[C@H]1[C@@H]2CN(Cc3ccc([C@H]4COc5cccnc5O4)cc3)C[C@@H]21 [Example 250, N-{(1α,5α,6α)-3-[(S)-4-(2,3-Dihydro-[1,4]dioxino[2,3-b]pyridin-3-yl)-benzyl]-3-aza-bicyclo[3.1.0]hex-6-yl}-acetamide] | 0.56 | 84 | –
CN[C@H](C)C(=O)NC1CCN(Cc2ccc([C@H]3COc4cccnc4O3)cc2)CC1 [Example 261, (R)-N-{1-[(S)-4-(2,3-Dihydro-[1,4]dioxino[2,3-b]pyridin-3-yl)-benzyl]-piperidin-4-yl}-2-methylamino-propionamide] | 2.5 | 260 | –
CC(C)(O)CNC(=O)C1CCN(Cc2ccc([C@H]3COc4cccnc4O3)cc2)CC1 [Example 255, 1-[(S)-4-(2,3-Dihydro-[1,4]dioxino[2,3-b]pyridin-3-yl)-benzyl]-piperidine-4-carboxylic acid (2-hydroxy-2-methyl-propyl)-amide] | 0.17 | 76 | –
NC(=O)NC1CCN(Cc2ccc([C@H]3COc4cccnc4O3)cc2)CC1 [Example 187, 1-(1-{4-[(3S)-2,3-dihydro[1,4]dioxino[2,3-b]pyridin-3-yl]benzyl}piperidin-4-yl)urea] | 0.07 | 177 | –
O=C(NC1CCN(Cc2ccc([C@H]3COc4cccnc4O3)cc2)CC1)C1CCOCC1 [Example 290, N-[1-[[4-[(3S)-2,3-dihydro-[1,4]dioxino[2,3-b]pyridin-3-yl]phenyl]methyl]-4-piperidyl]tetrahydropyran-4-carboxamide] | 0.2 | 48 | –
